Data published in PMC3984001 (Neuropharmacology, 2014).
Where two headings read alike, the source gives them in different places.

How the values were obtained:
Format in all cases: cell-based
human α2(T22I)β4-nAChR [1] = target: T1, human α2(T22I)β4-nAChR (Homo sapiens, UniProt P30926+Q15822, T22I); details: for EC50: Potency EC50 (95% CI), −70 mV; for Peak response Imax (Mean±SE): at the Imax concentration of the agonist
human α2(T22I)β2-nAChR [2] = target: T2, human α2(T22I)β2-nAChR (Homo sapiens, UniProt P17787+Q15822, T22I); details: for Higher agonist sensitivity of 1:10 (HS) than 1:1 or 10:1 receptors: α2(T22I):β2 1:10 vs 1:1 or 10:1 cRNA; for Lower Imax of 10:1 than 1:1 receptors / Lower agonist sensitivity of 10:1 than 1:1 receptors: α2(T22I):β2 10:1 vs 1:1 cRNA; for Peak response Imax (Mean±SE): at the Imax concentration of the agonist
human α2β2-nAChR [3] = target: T3, human α2β2-nAChR (Homo sapiens, UniProt P17787+Q15822); details: for EC50: Potency EC50 (95% CI), −70 mV; for Peak current: hα2hβ2opt, 316 μM ACh or 100 μM nicotine; for Higher agonist sensitivity of 1:10 (HS) than 1:1 receptors: α2:β2 1:10 vs 1:1 cRNA; for Higher agonist sensitivity of 1:10 (HS) than 1:1 receptors / Higher agonist sensitivity of 1:10 (HS) than 10:1 (LS) receptors: range printed for ACh or nicotine together; for Lower Imax of 1:10 (HS) than 1:1 or 10:1 receptors: α2:β2 1:10 vs 1:1 or 10:1 cRNA; for Higher agonist sensitivity of 1:10 (HS) than 10:1 (LS) receptors: α2:β2 1:10 vs 10:1 cRNA; for Lower Imax of 10:1 than 1:1 receptors / Lower agonist sensitivity of 10:1 than 1:1 receptors: α2:β2 10:1 vs 1:1 cRNA; for Peak response Imax (Mean±SE): at the Imax concentration of the agonist
human α2β4-nAChR = human α2β4-nAChR (Homo sapiens, UniProt P30926+Q15822); details: for EC50: Potency EC50 (95% CI), −70 mV; for Peak response Imax (Mean±SE): at the Imax concentration of the agonist
hα2hβ2wt-nAChR = hα2hβ2wt-nAChR (Homo sapiens, UniProt P17787+Q15822); details: 316 μM ACh or 100 μM nicotine
human α2(T22I)β2-nAChR [4] = target: T2, human α2(T22I)β2-nAChR; assay: Mecamylamine block of agonist-induced Imax responses; details: 1000 μM mecamylamine; α2(T22I):β2 1:1, 10:1 or 1:10; data not shown
human α2(T22I)β4-nAChR [5] = target: T1, human α2(T22I)β4-nAChR; assay: Mecamylamine block of agonist-induced peak currents; details: ACH-2, read-out: Inhibition of ACh-induced peak current responses, 1000 μM mecamylamine; 316 μM ACh; α2(T22I):β4 1:1
human α2β2-nAChR [6] = target: T3, human α2β2-nAChR; assay: Mecamylamine block of agonist-induced Imax responses; details: 1000 μM mecamylamine; α2:β2 1:1, 10:1 or 1:10; data not shown

T1 sequence (Q15822 27-529): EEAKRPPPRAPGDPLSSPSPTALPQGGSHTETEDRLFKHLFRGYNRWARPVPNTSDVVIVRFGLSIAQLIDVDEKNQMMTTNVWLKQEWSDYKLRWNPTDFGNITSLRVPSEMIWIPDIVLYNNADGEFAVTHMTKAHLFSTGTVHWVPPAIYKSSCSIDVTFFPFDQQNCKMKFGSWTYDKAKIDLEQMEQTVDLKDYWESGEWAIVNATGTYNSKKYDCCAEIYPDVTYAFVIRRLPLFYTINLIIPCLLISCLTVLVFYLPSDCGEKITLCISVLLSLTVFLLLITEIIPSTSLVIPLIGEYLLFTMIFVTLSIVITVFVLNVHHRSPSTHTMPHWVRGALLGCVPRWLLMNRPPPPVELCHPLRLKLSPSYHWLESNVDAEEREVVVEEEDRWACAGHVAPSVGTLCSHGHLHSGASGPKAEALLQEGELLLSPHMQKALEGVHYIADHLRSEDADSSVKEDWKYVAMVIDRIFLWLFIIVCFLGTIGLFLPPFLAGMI
T1 sequence (P30926 22-498): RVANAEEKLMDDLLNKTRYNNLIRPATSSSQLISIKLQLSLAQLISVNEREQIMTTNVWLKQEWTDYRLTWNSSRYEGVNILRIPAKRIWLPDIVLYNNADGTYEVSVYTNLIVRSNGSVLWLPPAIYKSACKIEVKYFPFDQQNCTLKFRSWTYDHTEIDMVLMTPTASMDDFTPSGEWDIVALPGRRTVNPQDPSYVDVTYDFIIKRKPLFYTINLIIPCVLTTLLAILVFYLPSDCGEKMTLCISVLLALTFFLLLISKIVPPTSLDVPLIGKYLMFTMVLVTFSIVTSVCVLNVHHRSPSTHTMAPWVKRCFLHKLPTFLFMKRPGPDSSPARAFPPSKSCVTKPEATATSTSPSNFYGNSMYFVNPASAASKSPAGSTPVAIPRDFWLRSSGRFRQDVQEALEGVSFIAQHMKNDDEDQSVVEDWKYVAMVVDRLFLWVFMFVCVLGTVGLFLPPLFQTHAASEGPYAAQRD
Chain of human α2β4-nAChR (Q15822 27-529): as the sequence (Q15822 27-529) above
Chain of human α2β4-nAChR (P30926 22-498): as the sequence (P30926 22-498) above
T2 sequence (Q15822 27-529): as the sequence (Q15822 27-529) above
T2 sequence (P17787 26-502): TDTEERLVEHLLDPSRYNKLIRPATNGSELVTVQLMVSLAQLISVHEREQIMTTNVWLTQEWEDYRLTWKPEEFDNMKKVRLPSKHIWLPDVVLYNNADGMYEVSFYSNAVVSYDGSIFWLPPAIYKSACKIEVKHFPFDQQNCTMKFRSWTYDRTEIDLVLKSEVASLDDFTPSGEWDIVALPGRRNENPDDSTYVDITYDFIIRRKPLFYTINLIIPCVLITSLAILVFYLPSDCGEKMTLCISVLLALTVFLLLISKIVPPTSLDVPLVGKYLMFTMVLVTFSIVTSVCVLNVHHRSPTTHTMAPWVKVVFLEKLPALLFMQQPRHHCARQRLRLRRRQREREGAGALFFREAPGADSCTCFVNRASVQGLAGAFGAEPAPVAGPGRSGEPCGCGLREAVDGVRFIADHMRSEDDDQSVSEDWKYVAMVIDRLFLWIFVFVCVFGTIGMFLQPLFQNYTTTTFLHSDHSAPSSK
T3 sequence (Q15822 27-529): as the sequence (Q15822 27-529) above
T3 sequence (P17787 26-502): as the sequence (P17787 26-502) above
Chain of hα2hβ2wt-nAChR (Q15822 27-529): as the sequence (Q15822 27-529) above
Chain of hα2hβ2wt-nAChR (P17787 26-502): as the sequence (P17787 26-502) above

With `CN1CCC[C@H]1c1cccnc1` [Nicotine, L-nicotine] the EC50 (human α2(T22I)β4-nAChR [1]; α2(T22I)β4(1:1) cRNA ratio) was 12 µM, the EC50 (human α2(T22I)β4-nAChR [1]; α2(T22I)β4(1:10) cRNA ratio, putative HS) was 2.6 µM and the EC50 (human α2(T22I)β4-nAChR [1]; α2(T22I)β4(10:1) cRNA ratio, putative LS) was 14 µM. The “Hill coefficient nH ± SE” value (human α2(T22I)β4-nAChR [1]; α2(T22I)β4(1:1)) was 1.8 ± 0.07, the “Imax Conc. (concentration where Imax is achieved)” value (human α2(T22I)β4-nAChR [1]; α2(T22I)β4(1:1)) was 100 µM and the “Peak response Imax (Mean±SE)” value (human α2(T22I)β4-nAChR [1]; α2(T22I)β4(1:1)) was 1527 ± 245 nA. The “Peak response Imax (Mean±SE)” value (human α2(T22I)β4-nAChR [1]; α2(T22I)β4(1:1), listed as nicotine) was 1527 nA, the “Hill coefficient nH ± SE” value (human α2(T22I)β4-nAChR [1]; α2(T22I)β4(1:10)) was 1.2 ± 0.04 and the “Imax Conc. (concentration where Imax is achieved)” value (human α2(T22I)β4-nAChR [1]; α2(T22I)β4(1:10)) was 100 µM. For the same compound, the “Peak response Imax (Mean±SE)” value (human α2(T22I)β4-nAChR [1]; α2(T22I)β4(1:10)) was 3996 ± 168 nA, the “Hill coefficient nH ± SE” value (human α2(T22I)β4-nAChR [1]; α2(T22I)β4(10:1)) was 2 ± 0.2 and the “Imax Conc. (concentration where Imax is achieved)” value (human α2(T22I)β4-nAChR [1]; α2(T22I)β4(10:1)) was 100 µM. For the same compound, the “Peak response Imax (Mean±SE)” value (human α2(T22I)β4-nAChR [1]; α2(T22I)β4(10:1)) was 402 ± 70 nA, the “Peak current lower than wild-type α2β4” value (human α2(T22I)β4-nAChR [1]; α2(T22I)β4 vs α2β4, 1:1 cRNA (mixture of isoforms)) was ~ 30% and the EC50 (human α2(T22I)β2-nAChR [2]; Potency EC50 (95% CI), α2(T22I)β2(1:1) cRNA ratio, −70 mV) was 6.7 µM. The “Higher agonist sensitivity of 1:10 (HS) than 1:1 or 10:1 receptors” value (human α2(T22I)β2-nAChR [2]) was 3–5 fold, the “Lower Imax of 10:1 than 1:1 receptors” value (human α2(T22I)β2-nAChR [2]) was ~ 23 fold and the “Lower agonist sensitivity of 10:1 than 1:1 receptors” value (“Lower agonist sensitivity” below) (human α2(T22I)β2-nAChR [2]) was ~ 2 fold. For the same compound, the “Hill coefficient nH ± SE” value (human α2(T22I)β2-nAChR [2]; α2(T22I)β2(1:1)) was 1.2 ± 0.08, the “Imax Conc. (concentration where Imax is achieved)” value (human α2(T22I)β2-nAChR [2]; α2(T22I)β2(1:1)) was 100 µM and the “Peak response Imax (Mean±SE)” value (human α2(T22I)β2-nAChR [2]; α2(T22I)β2(1:1)) was 1463 ± 136 nA. For the same compound, the “Hill coefficient nH ± SE” value (human α2(T22I)β2-nAChR [2]; α2(T22I)β2(1:10)) was 1 ± 0.07, the “Imax Conc. (concentration where Imax is achieved)” value (human α2(T22I)β2-nAChR [2]; α2(T22I)β2(1:10)) was 31.6 µM and the “Peak response Imax (Mean±SE)” value (human α2(T22I)β2-nAChR [2]; α2(T22I)β2(1:10)) was 1004 ± 91 nA. The “Hill coefficient nH ± SE” value (human α2(T22I)β2-nAChR [2]; α2(T22I)β2(10:1)) was 1.1 ± 0.2, the “Imax Conc. (concentration where Imax is achieved)” value (human α2(T22I)β2-nAChR [2]; α2(T22I)β2(10:1)) was 100 µM and the “Peak response Imax (Mean±SE)” value (human α2(T22I)β2-nAChR [2]; α2(T22I)β2(10:1)) was 62 ± 12 nA. The EC50 (human α2β2-nAChR [3]; α2β2(1:1) cRNA ratio) was 1.8 µM, the EC50 (human α2β2-nAChR [3]; α2β2(1:10) cRNA ratio, putative HS) was 0.83 µM and the EC50 (human α2β2-nAChR [3]; α2β2(10:1) cRNA ratio, putative LS) was 6.3 µM. For the same compound, the Peak current (human α2β2-nAChR [3]) was 291±55 nA, the “Higher agonist sensitivity of 1:10 (HS) than 1:1 receptors” value (human α2β2-nAChR [3]) was 2–3 fold and the “Lower Imax of 1:10 (HS) than 1:1 or 10:1 receptors” value (human α2β2-nAChR [3]) was 72–82%. For the same compound, the “Higher agonist sensitivity of 1:10 (HS) than 10:1 (LS) receptors” value (human α2β2-nAChR [3]) was 8–18 fold, the “Lower Imax of 10:1 than 1:1 receptors” value (human α2β2-nAChR [3]) was ~ 36% and the “Lower agonist sensitivity” value (human α2β2-nAChR [3]) was ~ 3.5 fold. The “Hill coefficient nH ± SE” value (human α2β2-nAChR [3]; α2β2(1:1)) was 0.8 ± 0.08, the “Imax Conc. (concentration where Imax is achieved)” value (human α2β2-nAChR [3]; α2β2(1:1)) was 100 µM and the “Peak response Imax (Mean±SE)” value (human α2β2-nAChR [3]; α2β2(1:1)) was 373 ± 33 nA. For the same compound, the “Hill coefficient nH ± SE” value (human α2β2-nAChR [3]; α2β2(1:10)) was 1.1 ± 0.13, the “Imax Conc. (concentration where Imax is achieved)” value (human α2β2-nAChR [3]; α2β2(1:10)) was 31.6 µM and the “Peak response Imax (Mean±SE)” value (human α2β2-nAChR [3]; α2β2(1:10)) was 68 ± 7.8 nA. The “Hill coefficient nH ± SE” value (human α2β2-nAChR [3]; α2β2(10:1)) was 1.2 ± 0.06, the “Imax Conc. (concentration where Imax is achieved)” value (human α2β2-nAChR [3]; α2β2(10:1)) was 100 µM and the “Peak response Imax (Mean±SE)” value (human α2β2-nAChR [3]; α2β2(10:1)) was 239 ± 21 nA. For the same compound, the EC50 (human α2β4-nAChR; α2β4(1:1) cRNA ratio) was 4.7 µM, the EC50 (human α2β4-nAChR; α2β4(1:10) cRNA ratio, putative HS) was 3.8 µM and the EC50 (human α2β4-nAChR; α2β4(10:1) cRNA ratio, putative LS) was 11 µM. For the same compound, the “Hill coefficient nH ± SE” value (human α2β4-nAChR; α2β4(1:1)) was 1.1 ± 0.1, the “Imax Conc. (concentration where Imax is achieved)” value (human α2β4-nAChR; α2β4(1:1)) was 100 µM and the “Peak response Imax (Mean±SE)” value (human α2β4-nAChR; α2β4(1:1)) was 2088 ± 96 nA. For the same compound, the “Peak response Imax (Mean±SE)” value (human α2β4-nAChR; α2β4(1:1), listed as nicotine) was 2088 nA, the “Hill coefficient nH ± SE” value (human α2β4-nAChR; α2β4(1:10)) was 1.3 ± 0.08 and the “Imax Conc. (concentration where Imax is achieved)” value (human α2β4-nAChR; α2β4(1:10)) was 100 µM. For the same compound, the “Peak response Imax (Mean±SE)” value (human α2β4-nAChR; α2β4(1:10)) was 1814 ± 155 nA, the “Hill coefficient nH ± SE” value (human α2β4-nAChR; α2β4(10:1)) was 1.6 ± 0.09 and the “Imax Conc. (concentration where Imax is achieved)” value (human α2β4-nAChR; α2β4(10:1)) was 100 µM. For the same compound, the “Peak response Imax (Mean±SE)” value (human α2β4-nAChR; α2β4(10:1)) was 1139 ± 93 nA and the Peak current (hα2hβ2wt-nAChR) was 24±5 nA.

In the case of `CNC1(C)C2CCC(C2)C1(C)C` (centres unmarked) [Mecamylamine, mecamylamine], the “Effect on ACh or nicotine induced Imax responses” value (human α2(T22I)β2-nAChR [4]) is reported as “completely abolished”, the inhibition at 1000 µM (human α2(T22I)β4-nAChR [5]) is reported as 99% and the “Effect on ACh or nicotine induced Imax responses” value (human α2β2-nAChR [6]) is reported as “completely abolished”.

For `CC(=O)OCC[N+](C)(C)C` [ACh, acetylcholine], the “Higher agonist sensitivity of 1:10 (HS) than 1:1 or 10:1 receptors” value (human α2(T22I)β2-nAChR [2]) was 4–9 fold, the “Lower Imax of 10:1 than 1:1 receptors” value (human α2(T22I)β2-nAChR [2]) was ~ 25 fold and the “Lower agonist sensitivity” value (human α2(T22I)β2-nAChR [2]) was ~ 2 fold. For the same compound, the “Hill coefficient nH ± SE” value (human α2(T22I)β2-nAChR [2]; α2(T22I)β2(1:1)) was 0.9 ± 0.08, the “Peak response Imax (Mean±SE)” value (human α2(T22I)β2-nAChR [2]; α2(T22I)β2(1:1)) was 1326 ± 214 nA and the “Peak response Imax (Mean±SE)” value (human α2(T22I)β2-nAChR [2]; α2(T22I)β2(1:10)) was 952 ± 128 nA. The “Hill coefficient nH ± SE” value (human α2(T22I)β2-nAChR [2]; α2(T22I)β2(10:1)) was 0.9 ± 0.3, the “Peak response Imax (Mean±SE)” value (human α2(T22I)β2-nAChR [2]; α2(T22I)β2(10:1)) was 54 ± 9 nA and the Peak current (human α2β2-nAChR [3]) was 406±89 nA. For the same compound, the “Higher agonist sensitivity of 1:10 (HS) than 1:1 receptors” value (human α2β2-nAChR [3]) was 2–3 fold, the “Lower Imax of 1:10 (HS) than 1:1 or 10:1 receptors” value (human α2β2-nAChR [3]) was 47–70% and the “Higher agonist sensitivity of 1:10 (HS) than 10:1 (LS) receptors” value (human α2β2-nAChR [3]) was 8–18 fold. For the same compound, the “Lower Imax of 10:1 than 1:1 receptors” value (human α2β2-nAChR [3]) was ~ 43%, the “Lower agonist sensitivity” value (human α2β2-nAChR [3]) was ~ 5 fold and the “Hill coefficient nH ± SE” value (human α2β2-nAChR [3]; α2β2(1:1)) was 0.7 ± 0.05. The “Peak response Imax (Mean±SE)” value (human α2β2-nAChR [3]; α2β2(1:1)) was 551 ± 62 nA, the “Hill coefficient nH ± SE” value (human α2β2-nAChR [3]; α2β2(1:10)) was 1 ± 0.08 and the “Peak response Imax (Mean±SE)” value (human α2β2-nAChR [3]; α2β2(1:10)) was 167 ± 18 nA. The “Hill coefficient nH ± SE” value (human α2β2-nAChR [3]; α2β2(10:1)) was 0.9 ± 0.08, the “Peak response Imax (Mean±SE)” value (human α2β2-nAChR [3]; α2β2(10:1)) was 314 ± 84 nA and the Peak current (hα2hβ2wt-nAChR) was 28±6 nA.
